According to ChEMBL document CHEMBL1641454, “6-Benzylamino 4-oxo-1,4-dihydro-1,8-naphthyridines and 4-oxo-1,4-dihydroquinolines as HIV integrase inhibitors” (Bioorg Med Chem Lett, 2011):

Legend:
[1] = tested on: Human immunodeficiency virus 1; experiment: Antiviral activity against VSV-G protein pseudotyped HIV1 luciferase reporter virus in mixture of human HeLa/JC53 cells assessed as luminescence after 48 hrs; type: functional, organism-based; conditions: Human immunodeficiency virus 1, Hela-JC53, 48 h
[2] = tested on: Human immunodeficiency virus 1; experiment: Antiviral activity against VSV-G protein pseudotyped HIV1 luciferase reporter virus in mixture of human HeLa/JC53 cells assessed as luminescence after 48 hrs in presence of 40% human serum; type: functional, organism-based; conditions: Human immunodeficiency virus 1, Hela-JC53, 48 h
[3] = Metabolic stability in human liver microsome assessed as compound remaining after 30 mins; type: ADME; conditions: liver microsomes, read-out: Stability
[4] = Plasma clearance in rat at 2 mg/kg, iv; type: ADME, organism-based; set-up: dose 2 mg/kg, route intravenous
[5] = Volume of distribution in rat at 2 mg/kg, iv; type: ADME, organism-based; set-up: dose 2 mg/kg, route intravenous; conditions: in vivo
[6] = Cmax in rat at 5 mg/kg, po; type: ADME, organism-based; set-up: dose 5 mg/kg, route oral; conditions: in vivo
[7] = AUC in rat at 5 mg/kg, po; type: ADME, organism-based; set-up: dose 5 mg/kg, route oral; conditions: plasma
[8] = Half life in rat at 5 mg/kg, po; type: ADME, organism-based; set-up: dose 5 mg/kg, route oral; conditions: in vivo
[9] = Oral bioavailability in rat at 5 mg/kg; type: ADME, organism-based; conditions: in vivo
[10] = Plasma clearance in Beagle dog at 1 mg/kg, iv; type: ADME, organism-based, Canis lupus familiaris; set-up: dose 1 mg/kg, route intravenous
[11] = Volume of distribution in Beagle dog at 1 mg/kg, iv; type: ADME, organism-based, Canis lupus familiaris; set-up: dose 1 mg/kg, route intravenous; conditions: in vivo
[12] = Half life in Beagle dog at 1 mg/kg, iv; type: ADME, organism-based, Canis lupus familiaris; set-up: dose 1 mg/kg, route intravenous; conditions: in vivo
[13] = Plasma clearance in rhesus monkey at 1 mg/kg, iv; type: ADME, organism-based, Macaca mulatta; set-up: dose 1 mg/kg, route intravenous
[14] = Volume of distribution in rhesus monkey at 1 mg/kg, iv; type: ADME, organism-based, Macaca mulatta; set-up: dose 1 mg/kg, route intravenous; conditions: in vivo
[15] = Half life in rhesus monkey at 1 mg/kg, iv; type: ADME, organism-based, Macaca mulatta; set-up: dose 1 mg/kg, route intravenous; conditions: in vivo

Row | SMILES | EC50 [1] [µM] | EC50 [2] [µM] | remaining at 0.5 h [3] [%] | other results
1 | COc1nc(Cc2cccc(Cl)c2F)cc2c(=O)c(C(=O)O)cn([C@H](CO)C(C)C)c12 | 0.291 | 1.77 |  | 
2 | COc1nc2c(cc1NCc1c(F)cc(F)cc1F)c(=O)c(C(=O)O)cn2[C@H](CO)C(C)(C)C | 0.0076 | 0.042 | 75 | clearance [4]: 5.83 mL/min/kg; Vd [5]: 4.18 L/kg; Cmax [6]: 666 ng/mL; AUC [7]: 2890 ng·h/mL; half-life [8]: 3.7 h; bioavailability [9]: 23%; clearance [10]: 15.5 mL/min/kg; Vd [11]: 1.93 L/kg; half-life [12]: 2 h; clearance [13]: 44.2 mL/min/kg; Vd [14]: 3.93 L/kg; half-life [15]: 2.2 h
3 | COc1nc2c(cc1Nc1cccc(Cl)c1F)c(=O)c(C(=O)O)cn2[C@H](CO)C(C)C | > 2.5 |  |  | 
4 | COc1nc2c(cc1Cc1cccc(Cl)c1F)c(=O)c(C(=O)O)cn2[C@@H](C)CO | 0.177 | 1.05 |  | 
5 | CC(C)(C)[C@@H](CO)n1cc(C(=O)O)c(=O)c2cc(Cc3cccc(Cl)c3F)c(OCCO)nc21 | 0.0009 | 0.0024 | 45 | 
6 | CCC[C@@H](CO)n1cc(C(=O)O)c(=O)c2cc(Cc3cccc(Cl)c3F)c(OC)nc21 | 0.18 | 1.02 |  | 
7 | COc1nc2c(cc1NCc1cccc(Cl)c1F)c(=O)c(C(=O)O)cn2[C@H](CO)C(C)C | 0.49 | 2.68 |  | 
8 | CCCC[C@@H](CO)n1cc(C(=O)O)c(=O)c2cc(Cc3cccc(Cl)c3F)c(OC)nc21 | 0.02 | 0.245 |  | 
9 | CC(C)[C@@H](CO)n1cc(C(=O)O)c(=O)c2nc(Cc3cccc(Cl)c3F)ccc21 | > 2.5 |  |  | 
10 | COc1nc2c(cc1NCc1ccccc1F)c(=O)c(C(=O)O)cn2[C@H](CO)C(C)C | 0.081 | 0.283 | 97 | 
11 | COc1nc2c(cc1NCc1cccc(F)c1)c(=O)c(C(=O)O)cn2[C@H](CO)C(C)C | 1.46 | 1.59 |  | 
12 | CC[C@@H](CO)n1cc(C(=O)O)c(=O)c2cc(Cc3cccc(Cl)c3F)c(OC)nc21 | 0.04 | 0.307 |  | 
13 | COc1nc2c(cc1Cc1cccc(Cl)c1F)c(=O)c(C(=O)O)cn2[C@H](CO)CC(C)C | 0.0059 | 0.129 | 92 | 
14 | COc1nc2c(cc1Cc1cccc(Cl)c1F)c(=O)c(C(=O)O)cn2[C@H](CO)C(C)C | 0.011 | 0.136 | 100 | 
15 | CCOc1nc2c(cc1Cc1cccc(Cl)c1F)c(=O)c(C(=O)O)cn2[C@H](CO)C(C)(C)C | 0.0014 | 0.019 | 84 | 
16 | COc1nc2c(cc1NCc1c(F)cc(F)cc1F)c(=O)c(C(=O)O)cn2[C@H](CO)C(C)C | 0.0014 | 0.052 | 82 | 
17 | CC(C)Oc1nc2c(cc1Cc1cccc(Cl)c1F)c(=O)c(C(=O)O)cn2[C@H](CO)C(C)(C)C | 0.016 | 0.195 |  | 
18 | COc1nc2c(cc1Nc1ccc(F)cc1)c(=O)c(C(=O)O)cn2[C@H](CO)C(C)C | > 2.5 |  |  | 
19 | COc1nc2c(cc1NCc1ccc(F)cc1)c(=O)c(C(=O)O)cn2[C@H](CO)C(C)(C)C | 0.15 | 0.385 |  | 
20 | COc1cc2c(cc1Cc1cccc(Cl)c1F)c(=O)c(C(=O)O)cn2[C@H](CO)C(C)C [ELVITEGRAVIR] | 0.0007 | 0.036 | 38 | clearance [4]: 3.83 mL/min/kg; Vd [5]: 2.74 L/kg; Cmax [6]: 1140 ng/mL; AUC [7]: 5630 ng·h/mL; half-life [8]: 2.9 h; bioavailability [9]: 26%; clearance [10]: 10 mL/min/kg; Vd [11]: 2.38 L/kg; half-life [12]: 3.6 h; clearance [13]: 7.17 mL/min/kg; Vd [14]: 1.99 L/kg; half-life [15]: 3.2 h
21 | CC(C)(C)[C@@H](CO)n1cc(C(=O)O)c(=O)c2cc(Cc3cccc(Cl)c3F)c(N3CCOCC3)nc21 | 0.0099 | 0.039 | 97 | clearance [4]: 7 mL/min/kg; Vd [5]: 4.02 L/kg; Cmax [6]: 414 ng/mL; AUC [7]: 2700 ng·h/mL; half-life [8]: 2.6 h; bioavailability [9]: 26%; clearance [10]: 10 mL/min/kg; Vd [11]: 1.03 L/kg; half-life [12]: 2.6 h; clearance [13]: 19.7 mL/min/kg; Vd [14]: 3.06 L/kg; half-life [15]: 8.1 h
22 | COc1nc2c(cc1NCc1ccc(F)cc1)c(=O)c(C(=O)O)cn2[C@H](CO)C(C)C | 0.098 | 0.421 | 87 | 
23 | CC(C)(C)[C@@H](CO)n1cc(C(=O)O)c(=O)c2cc(Cc3cccc(Cl)c3F)c(O)nc21 | 0.0027 | 0.199 | 87 | 
24 | COc1nc2c(cc1Nc1ccc(Cl)c(F)c1)c(=O)c(C(=O)O)cn2[C@H](CO)C(C)C | > 2.5 |  |  | 
25 | COc1nc2c(cc1NCc1ccc(F)cc1F)c(=O)c(C(=O)O)cn2[C@H](CO)C(C)C | 0.0046 | 0.139 | 87 | 
26 | CC(C)[C@@H](CO)n1cc(C(=O)O)c(=O)c2cc(Cc3cccc(Cl)c3F)ncc21 | 0.054 | 0.425 | 100 | 
27 | CC(C)[C@@H](CO)n1cc(C(=O)O)c(=O)c2cc(Cc3cccc(Cl)c3F)cnc21 | 0.065 | 1.94 | 99 | 
28 | COc1nc2c(cc1Cc1cccc(Cl)c1F)c(=O)c(C(=O)O)cn2[C@H](CO)C(C)(C)C | 0.0086 | 0.061 | 82 | clearance [4]: 2.67 mL/min/kg; Vd [5]: 2.31 L/kg; Cmax [6]: 1230 ng/mL; AUC [7]: 8500 ng·h/mL; half-life [8]: 2.9 h; bioavailability [9]: 31%
